The values that follow are results of earlier work, collected in patent publication EP0301423B1 (CHIESI FARMACEUTICI S.p.A., priority 1987, dated 1989).

For one series, the system named is isolated coronary artery. The following applies: mice.
In a further series the test system is coronary flow. The following applies: mice.

Regarding `CCNc1cc(C)nc2ncnn12` [TP1], the “effect on the isolated coronary artery” value in the series with isolated coronary artery was “relaxation of the isolated coronary artery”. Further, the “effect on coronary flow” value with coronary flow is listed as “increase in the coronary flow”.
